Activity calls are given as the source filed them.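 How the source made its calls: active means fitted half-maximal concentration for changing reporter fluorescence at or below a set limit; inactive means the rest.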
Molecular target: Citrate synthase, peroxisomal (Saccharomyces cerevisiae (strain ATCC 204508 / S288c)) (UniProt P08679)
Test: yeast TOR pathway CIT2-GFP reporter potency – flow cytometry, MLPCN hits, dose response (AID 2744)
Details: S. cerevisiae CIT2-GFP strain, 3 h, at 33 µM (top of the series)

Sequence of Citrate synthase, peroxisomal (Saccharomyces cerevisiae (strain ATCC 204508 / S288c)) (P08679 whole entry, looked up): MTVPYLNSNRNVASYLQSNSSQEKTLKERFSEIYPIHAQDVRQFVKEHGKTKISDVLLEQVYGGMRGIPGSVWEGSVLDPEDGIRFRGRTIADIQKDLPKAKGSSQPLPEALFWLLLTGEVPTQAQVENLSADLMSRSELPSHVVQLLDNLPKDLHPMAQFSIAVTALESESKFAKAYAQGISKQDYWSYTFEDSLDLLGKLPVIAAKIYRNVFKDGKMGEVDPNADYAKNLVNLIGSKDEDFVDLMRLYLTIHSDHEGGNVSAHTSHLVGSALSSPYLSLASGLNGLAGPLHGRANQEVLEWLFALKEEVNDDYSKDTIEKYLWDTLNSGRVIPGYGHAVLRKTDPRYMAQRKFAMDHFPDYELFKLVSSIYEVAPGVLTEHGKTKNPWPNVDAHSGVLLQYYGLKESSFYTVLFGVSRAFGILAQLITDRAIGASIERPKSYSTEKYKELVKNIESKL

Structure (SMILES) | GFP fluorescence, higher = induction
Cc1ccnc(N2C(=O)c3cccc4c([N+](=O)[O-])ccc(c34)C2=O)c1 | inactive
COc1ccc(C(=O)NNC(=S)NC(=O)/C=C/c2cccs2)cc1 | inactive
CC(C)(C)c1ccc(NC(=O)COC(=O)c2ccc([N+](=O)[O-])s2)cc1 | inactive
CC(=O)Nc1ncnc2c1c(-c1ccc(Cl)cc1)nn2C(C)(C)C | inactive
Cc1ccc(S(=O)(=O)N2CCCC2C(=O)NCc2ccncc2)cc1 (stereo not given) | inactive
O=C(Cc1ccc(Cl)cc1)NNC(=S)NC(=O)c1cccs1 | inactive
O=C(Nc1ccc(NC(=O)c2cc3ccccc3o2)cc1)c1ccco1 | inactive
CCC(=O)Nc1ccc(NC(=O)c2cc3ccccc3o2)cc1 | inactive
COc1ccc(N2C(=O)C(Cl)=C(Oc3cccc(OC)c3)C2=O)cc1 | inactive
O=C1C(Cl)=C(N2CCN(Cc3ccccc3)CC2)C(=O)N1c1ccccc1 | inactive
O=c1c2cnn(-c3ccccc3)c2ncn1Cc1ccco1 | inactive
COc1cc(NC(=O)c2cccc(C)c2)ccc1NC(=O)c1cc2ccccc2o1 | inactive
Cc1[nH]c(-c2ccccn2)nc(=S)c1Cl | inactive
CC(Oc1ccc(Cl)cc1)C(=O)NNC(=S)NC(=O)c1ccco1 (stereo not given) | inactive
CCCOc1ccc(C(=O)NNC(=S)NC(=O)c2ccco2)cc1 | inactive
O=C(NNC(=S)NC(=O)C12CC3CC(CC(C3)C1)C2)c1ccncc1 | inactive
N/C(=N\OC(=O)c1cccc(Br)c1)c1ccccc1 | inactive
CC[C@]1(c2ccccc2C)ON(c2ccccc2C(F)(F)F)C1=O | inactive
Nc1c(C(=O)c2cccs2)sc2nsc(SCCN3CCCCC3)c12 | inactive
CCOC(=O)c1c(C)oc2c1c(C(c1ccncc1)N1CCOCC1)c(O)c1ccccc12 (stereo not given) | inactive
C/C(=N\NC(=O)c1cccc(Br)c1)c1ccccn1 | inactive
N#Cc1c2ccc([N+](=O)[O-])cc2[n+]([O-])n1-c1ccccc1 | inactive
COc1ccc(-c2cc(C(F)(F)F)nc(S(C)(=O)=O)n2)cc1 | inactive

Structure (SMILES) | GFP fluorescence, higher = induction
CCCCNc1c2c3c(cccc3n(C)c1=O)C(=O)c1ccccc1-2 | inactive
CC(=O)N(C1=C(Cl)C(=O)c2ccccc2C1=O)C1CCCCC1 | inactive
O=C(Oc1oc(-c2ccco2)nc1C=Nc1ccccc1)c1ccoc1 | inactive
O=C(NC(=S)NNC(=O)c1cnccn1)c1ccc(F)cc1 | inactive
O=C(Nc1nnc(-c2ccc3c(c2)CCCC3)o1)c1ccc(Cl)cc1Cl | inactive
Cc1cccc(N2C(=O)C(Cl)=C(Nc3c(C)n(C)n(-c4ccccc4)c3=O)C2=O)c1C | inactive
COc1ccc(/C=C/C(=O)C2C(=O)C=C(C)OC2=O)cc1O (stereo not given) | inactive
CC(=O)Oc1ccc(N2C(=O)C3C4C=CC(CO)(O4)C3C2=O)cc1 (stereo not given) | inactive
Cc1ccccc1N=Nc1ccc(O)c2ncccc12 | inactive
CC(C)(C)n1nc(-c2ccc(Cl)cc2)c2c(N)ncnc21 | inactive
Cc1ccc2nc(Cl)c3nnnn3c2c1 | inactive
Nc1nc(N)c2nc(CNc3ccc(C(=O)NC(CCC(=O)O)C(=O)O)cc3)cnc2n1 (stereo not given) | inactive
Cc1ccc(/C=c2\sc3nc(-c4cccs4)nn3c2=O)o1 | inactive
Cc1ccc(NN2C(=O)C=C(c3ccc(Cl)cc3)C2=O)cc1 | inactive
COc1ccc(N2C(=O)C(Cl)=C(NCc3ccccc3)C2=O)cc1 | inactive
Cc1ccc(/C=C2\SC(=S)N(CC3CCCO3)C2=O)o1 (stereo not given) | inactive
O=C(NCc1ccc2c(c1)OCO2)c1nc(S(=O)(=O)Cc2ccccc2)ncc1Cl | inactive
O=C(Oc1ccnc2cc(Cl)ccc12)N1CCCCCC1 | inactive
O=C1C(Cl)=C(Nc2ccccc2O)C(=O)N1c1ccccc1 | inactive
O=C1C2C3C=CC(CO)(O3)C2C(=O)N1c1ccccc1-c1ccccc1 (stereo not given) | inactive
COc1cccc2c(=O)c(C(=O)NCc3cccs3)c[nH]c12 | inactive
O=C1NC(=O)N(c2ccccc2)C(=O)/C1=C/c1ccc(Sc2ccccc2)o1 | inactive
COc1cc(/C=C/[N+](=O)[O-])ccc1O | inactive

Structure (SMILES) | GFP fluorescence, higher = induction
CC(C)Oc1ccc(C(=O)/C=C2/C(=O)Nc3ccccc32)cc1 | inactive
O=C1N(c2ccccc2C(F)(F)F)O[C@]1(c1ccccc1)C1CCCCC1 | inactive
Cc1cc(NC(=O)c2cccnc2Cl)ccc1NC(=O)c1cc2ccccc2o1 | inactive
C=CCOc1ccc(C(=O)/C=C2/C(=O)Nc3ccccc32)cc1 | inactive
O=C(O)c1cccc(S(=O)(=O)Nc2ccc(S(=O)(=O)N3CCOCC3)cc2)c1 | inactive
O=C(c1ccc([N+](=O)[O-])o1)N1CCN(c2nc3c(F)cc(F)cc3s2)CC1 | inactive
N/C(Cc1ccc(Cl)cc1Cl)=N\OC(=O)c1ccccc1 | inactive
CC(=O)Oc1cccc(N2C(=O)c3cccc4c([N+](=O)[O-])ccc(c34)C2=O)c1 | inactive
COc1cc(/C=C2\C(=O)ON=C2c2ccc(Cl)cc2)ccc1O | inactive
Cc1ccc(/C=C2/C(=O)ON=C2c2ccccc2)o1 | inactive
COc1cccc(/C=N/Nc2ncc(C(F)(F)F)cc2Cl)c1O | inactive
O=[N+]([O-])c1cc(F)c2cccnc2c1O | inactive
O=C(/C=C/c1ccc(Cl)c([N+](=O)[O-])c1)c1cccnc1 | inactive
CC(=O)Oc1oc(-c2ccccc2)nc1C=Nc1ccccc1 | inactive
CCN(CC)c1ccc(/C=C2\C(=O)c3ccc(C(=O)O)cc3C2=O)cc1 | inactive
CCSc1nnc(NC(=O)c2ccccn2)s1 | inactive
CCCCCn1c(=O)c(C(=O)Nc2nc3ccccc3[nH]2)c(O)c2ccccc21 | inactive
Cc1cc(C2CCCCC2)n(O)c(=O)c1 | inactive
COc1ccc(N/N=C(\C#N)C(N)=O)cc1 | inactive
O=c1[nH]c(-c2ccccn2)nc(C(F)(F)F)c1Br | inactive
Oc1c(Br)cc(Br)cc1C=Nc1ccc2[nH]ncc2c1 | inactive
COc1cc(N=c2ssnc2Cl)c(OC)cc1Cl | inactive
Cc1ccc(/C=C2/SC(=S)N(C3CCCCC3)C2=O)o1 | inactive

Structure (SMILES) | GFP fluorescence, higher = induction
CCN1/C(=C/c2ccc3cc(C)ccc3[n+]2CC)Sc2ccc3sccc3c21 | inactive
O=C1C=CC(=O)N1c1ccc(O)cc1 | inactive
CN(C)c1ccc(N=Cc2nc(-c3ccccc3)oc2OC(=O)c2cccc(Cl)c2)cc1 | inactive
CC(=O)Oc1ccc(N2C(=O)C3C4C=CC(O4)C3C2=O)cc1 (stereo not given) | inactive
O=C(CCc1ccccc1)NNC(=S)NC(=O)c1ccccc1 | inactive
CC(C)(C)C1C/C(=C/c2ccccn2)C(=O)/C(=C/c2ccccn2)C1 (stereo not given) | inactive
COc1ccccc1-c1nc2s/c(=C\c3cccs3)c(=O)n2n1 | inactive
Cc1cc(C(=O)Nc2nc(-c3ccccn3)cs2)ccc1[N+](=O)[O-] | inactive
COCCN1C(=O)/C(=C/c2ccc(N3CCCC3)cc2C)SC1=S | inactive
COc1cc(/C=C2\C(=O)N(CCC#N)N=C2C)c(Br)cc1OC(C)C | inactive
COc1ccc(N=Cc2nc(-c3ccccc3)oc2OC(=O)c2ccccc2)cc1 | inactive
CCOc1ccccc1/C=c1\sc2ncnn2c1=O | inactive
CC[C@]1(c2ccccc2OC)ON(c2ccccc2C(F)(F)F)C1=O | inactive
O=C(c1ccc(Cl)cc1)N1CCN(c2cccc3[nH]ccc23)CC1 | inactive
Cc1c(Cc2ccccc2)c(NCCN(C)C)n2c(nc3ccccc32)c1C#N | inactive
CCN(CC)c1ccc(/C=C2/C(=O)c3ccc(C(=O)O)cc3C2=O)cc1 | inactive
Cc1cc2ccccn2c1C(=O)c1ccc([N+](=O)[O-])o1 | inactive
O=C1c2ccccc2C(=O)N1OS(=O)(=O)c1ccc(F)cc1 | inactive
O=C1N(c2ccccc2C(F)(F)F)O[C@]1(c1ccccc1)C1CCCC1 | inactive
O=C1C2C3C=CC(CO)(O3)C2C(=O)N1c1ccc(-c2ccccc2)cc1 (stereo not given) | inactive
Fc1cccc(Nc2ncnc3c2cnn3-c2ccccc2)c1 | inactive
COc1ccc(N2CCN(C(=O)c3ccc(Br)cc3)CC2)c([N+](=O)[O-])c1 | inactive
COc1ccc([N+](=O)[O-])c(S(=O)(=O)c2ccccc2)n1 | inactive

Same assay, conditions: S. cerevisiae CIT2-GFP strain, flow cytometry fluorescence, 3 h

Structure (SMILES) | EC50 [µM]
Cc1ccc(/C(N)=N/OC(=O)c2ccc(F)cc2)cc1 | 3.81
N=C1/C(=C\c2coc3ccccc3c2=O)C(=O)N=C2SC(c3ccncc3)=NN12 | 13
CCCOc1ccc(C(=O)NNC(=S)NC(=O)CC)cc1 | 3.1
